Test results reported in US20240239772A1, “PROTEASE INHIBITORS AND METHODS OF USE” (The Cleveland Clinic Foundation, priority 2021, published 2024).

Biological target: SARS-CoV-2 3CLpro (Severe acute respiratory syndrome coronavirus 2 (2019-nCoV) (SARS-CoV-2), UniProt P0DTD1)
Experiment: biochemical
Assay type: biochemical
Conditions: not given

Compound | IC50
CC(c1cc(F)cc(Cl)c1)N(C(=O)Cn1nnc2ccccc21)c1ccc(-c2c[nH]cn2)cc1 (racemic) [Compound 73, 2-(benzotriazol-1-yl)-N-[4-(1H-imidazol-4-yl)phenyl]-N-[rac-(1R)-1-(3-chloro-5-fluoro-phenyl)ethyl]acetamide] | 100 nM

Same assay, conditions: read-out: SARS-CoV-2 IC50

Compound | IC50
O=C(Cn1nnc2ccccc21)N(Cc1cc(F)cc(F)c1)c1ccc(C2CCNC2)cc1 (stereo not drawn) [Compound 108, 2-(benzotriazol-1-yl)-N-[(3,5-difluorophenyl)methyl]-N-(4-pyrrolidin-3-ylphenyl)acetamide] | 210 nM
O=C(Cn1nnc2ccccc21)N(Cc1cc(F)cc(F)c1)c1ccc(-c2nnc[nH]2)cc1 [Compound 106, 2-(benzotriazol-1-yl)-N-[(3,5-difluorophenyl)methyl]-N-[4-(4H-1,2,4-triazol-3-yl)phenyl]acetamide] | 940 nM
Cc1cc(Cl)cc(CN(C(=O)Cn2nnc3ccccc32)c2ccc(-c3cccnc3)cc2)c1 [Compound 33, 2-(Benzotriazol-1-yl)-N-[(3-chloro-5-methyl-phenyl)methyl]-N-[4-(3-pyridyl)phenyl]acetamide] | 312 ± 73 nM
O=C(Cn1nnc2ccccc21)N(Cc1cc(F)cc(F)c1)c1ccc(C2=CCNC2)cc1 [Compound 91, 2-(benzotriazol-1-yl)-N-[(3,5-difluorophenyl)methyl]-N-[4-(2,5-dihydro-1H-pyrrol-3-yl)phenyl]acetamide] | 130 nM
Cc1ccc(CN(C(=O)Cn2nnc3ccccc32)c2ccc(-c3cccnc3)cc2)cc1Cl [Compound 71, 2-(1H-benzo[d][1,2,3]triazol-1-yl)-N-(3-chloro-4-methylbenzyl)-N-(4-(pyridin-3-yl)phenyl)acetamide] | > 50000 nM
O=C(Cn1nnc2ccccc21)N(CC1CCCC1)c1ccc(-c2ccc[nH]c2=O)cc1 [Compound 68, 2-(1H-benzo[d][1,2,3]triazol-1-yl)-N-(cyclopentylmethyl)-N-(4-(2-oxo-1,2-dihydropyridin-3-yl)phenyl)acetamide] | 1300 nM
O=C(Cn1nnc2ccccc21)N(Cc1cncc(Cl)c1)c1ccc(-c2cccnc2)cc1 [Compound 34, 2-(Benzotriazol-1-yl)-N-[(5-chloro-3-pyridyl)methyl]-N-[4-(3-pyridyl)phenyl]acetamide] | 540 ± 70 nM
O=C(Cn1nnc2ccccc21)N(Cc1ccsc1)c1ccc(-c2ccc[nH]c2=O)cc1 [Compound 17, 2-(1H-Benzo[d][1,2,3]triazol-1-yl)-N-(4-(2-oxo-1,2-dihydropyridin-3-yl)phenyl)-N-(thiophen-3-ylmethyl)acetamide] | 920 ± 210 nM
NC(=O)Cc1ccc(N(Cc2cc(F)cc(F)c2)C(=O)Cn2nnc3ccccc32)cc1 [Compound 94, 2-[4-[[2-(benzotriazol-1-yl)acetyl]-[(3,5-difluorophenyl)methyl]amino]phenyl]acetamide] | 670 nM
O=C(Cn1nnc2ccccc21)N(Cc1cc(Cl)ccc1F)c1ccc(-c2c[nH]cn2)cc1 [Compound 83, 2-(benzotriazol-1-yl)-N-[(5-chloro-2-fluoro-phenyl)methyl]-N-[4-(1H-imidazol-4-yl)phenyl]acetamide] | 76 nM
O=C1CNCCN1c1ccc(N(Cc2cc(F)cc(F)c2)C(=O)Cn2nnc3ccccc32)cc1 [Compound 101, 2-(benzotriazol-1-yl)-N-[(3,5-difluorophenyl)methyl]-N-[4-(2-oxopiperazin-1-yl)phenyl]acetamide] | 3400 nM
O=C(Cn1nnc2ccccc21)N(Cc1ccc(F)c(Cl)c1)c1ccc(-c2cccnc2)cc1 [Compound 29, 2-(Benzotriazol-1-yl)-N-[(3-chloro-4-fluoro-phenyl)methyl]-N-[4-(3-pyridyl)phenyl]acetamide] | 8530 ± 1820 nM
Cc1[nH]cnc1-c1ccc(N(Cc2cc(F)cc(Cl)c2)C(=O)Cn2nnc3ccccc32)cc1 [Compound 74, 2-(benzotriazol-1-yl)-N-[(3-chloro-5-fluoro-phenyl)methyl]-N-[4-(5-methyl-1H-imidazol-4-yl)phenyl]acetamide] | 350 nM
O=C(O)Cc1ccc(N(Cc2cc(F)cc(F)c2)C(=O)Cn2nnc3ccccc32)cc1 [Compound 93, 2-[4-[[2-(benzotriazol-1-yl)acetyl]-[(3,5-difluorophenyl)methyl]amino]phenyl]acetic acid] | 23000 nM
O=C(Cn1nnc2ccccc21)N(Cc1cc(F)ccc1F)c1ccc(-c2c[nH]cn2)cc1 [Compound 80, 2-(benzotriazol-1-yl)-N-[(2,5-difluorophenyl)methyl]-N-[4-(1H-imidazol-4-yl)phenyl]acetamide] | 220 nM
O=C(Cn1nnc2ccccc21)N(Cc1cncc(F)c1)c1ccc(C2CNC2)cc1 [Compound 119, N-[4-(azetidin-3-yl)phenyl]-2-(benzotriazol-1-yl)-N-[(5-fluoro-3-pyridyl)methyl]acetamide] | 600 nM
N#Cc1ccc(N(Cc2cc(F)cc(F)c2)C(=O)Cn2nnc3ccccc32)cc1 [Compound 102, 2-(benzotriazol-1-yl)-N-(4-cyanophenyl)-N-[(3,5-difluorophenyl)methyl]acetamide] | 4700 nM
COc1ccc(CN(C(=O)Cn2nnc3ccccc32)c2ccc(-c3c[nH]cn3)cc2)cc1F [Compound 117, 2-(benzotriazol-1-yl)-N-[(3-fluoro-4-methoxy-phenyl)methyl]-N-[4-(1H-imidazol-4-yl)phenyl]acetamide] | 970 nM
O=C(Cn1nnc2ccccc21)N(Cc1cc(Cl)cc(Cl)c1)c1ccc(-c2cccnc2)cc1 [Compound 32, 2-(Benzotriazol-1-yl)-N-[(3,5-dichlorophenyl)methyl]-N-[4-(3-pyridyl)phenyl]acetamide] | 176 ± 25 nM
O=C(Cn1nnc2ccccc21)N(CC1CCCC1)c1ccc(-c2cccnc2)cc1 [Compound 25, 2-(1H-Benzo[d][1,2,3]triazol-1-yl)-N-(cyclopentylmethyl)-N-(4-(pyridin-3-yl)phenyl)acetamide] | 1160 ± 190 nM
O=C(Cn1nnc2ccccc21)N(Cc1c(F)cccc1F)c1ccc(-c2c[nH]cn2)cc1 [Compound 98, 2-(benzotriazol-1-yl)-N-[(2,6-difluorophenyl)methyl]-N-[4-(1H-imidazol-4-yl)phenyl]acetamide] | 980 nM
COc1cc(Cl)cc(CN(C(=O)Cn2nnc3ccccc32)c2ccc(-c3c[nH]cn3)cc2)c1 [Compound 87, 2-(benzotriazol-1-yl)-N-[(3-chloro-5-methoxy-phenyl)methyl]-N-[4-(1H-imidazol-4-yl)phenyl]acetamide] | 57 nM
O=C(Cn1nnc2ccccc21)N(Cc1ccc(F)cn1)c1ccc(-c2c[nH]cn2)cc1 [Compound 103, 2-(benzotriazol-1-yl)-N-[(5-fluoro-2-pyridyl)methyl]-N-[4-(1H-imidazol-4-yl)phenyl]acetamide] | 9500 nM
O=C(Cn1nnc2ccccc21)N(Cc1cscn1)c1ccc(-c2cccnc2)cc1 [Compound 27, 2-(Benzotriazol-1-yl)-N-[4-(3-pyridyl)phenyl]-N-(thiazol-4-ylmethyl)acetamide] | 1590 ± 440 nM
O=C(Cn1nnc2ccccc21)N(Cc1cc(F)cc(F)c1)c1ccc(CCO)cc1 [Compound 99, 2-(benzotriazol-1-yl)-N-[(3,5-difluorophenyl)methyl]-N-[4-(2-hydroxyethyl)phenyl]acetamide] | 460 nM
COC(=O)Cc1ccc(N(Cc2cc(F)cc(F)c2)C(=O)Cn2nnc3ccccc32)cc1 [Compound 92, methyl 2-[4-[[2-(benzotriazol-1-yl)acetyl]-[(3,5-difluorophenyl)methyl]amino]phenyl]acetate] | 1800 nM
